# Source: patent publication US20210317134A1, “UBIQUITIN-SPECIFIC-PROCESSING PROTEASE 7 (USP7) MODULATORS AND USES THEREOF” (RAPT THERAPEUTICS, INC., priority 2019, published 2021)
# pIC50: −log10 of the molar value.
# Molecular target: USP7 (Homo sapiens, UniProt Q93009)
# Assay: USP7 inhibitory potency (Table 1)
# Type: biochemical
# Sequence of USP7 (Q93009 whole entry): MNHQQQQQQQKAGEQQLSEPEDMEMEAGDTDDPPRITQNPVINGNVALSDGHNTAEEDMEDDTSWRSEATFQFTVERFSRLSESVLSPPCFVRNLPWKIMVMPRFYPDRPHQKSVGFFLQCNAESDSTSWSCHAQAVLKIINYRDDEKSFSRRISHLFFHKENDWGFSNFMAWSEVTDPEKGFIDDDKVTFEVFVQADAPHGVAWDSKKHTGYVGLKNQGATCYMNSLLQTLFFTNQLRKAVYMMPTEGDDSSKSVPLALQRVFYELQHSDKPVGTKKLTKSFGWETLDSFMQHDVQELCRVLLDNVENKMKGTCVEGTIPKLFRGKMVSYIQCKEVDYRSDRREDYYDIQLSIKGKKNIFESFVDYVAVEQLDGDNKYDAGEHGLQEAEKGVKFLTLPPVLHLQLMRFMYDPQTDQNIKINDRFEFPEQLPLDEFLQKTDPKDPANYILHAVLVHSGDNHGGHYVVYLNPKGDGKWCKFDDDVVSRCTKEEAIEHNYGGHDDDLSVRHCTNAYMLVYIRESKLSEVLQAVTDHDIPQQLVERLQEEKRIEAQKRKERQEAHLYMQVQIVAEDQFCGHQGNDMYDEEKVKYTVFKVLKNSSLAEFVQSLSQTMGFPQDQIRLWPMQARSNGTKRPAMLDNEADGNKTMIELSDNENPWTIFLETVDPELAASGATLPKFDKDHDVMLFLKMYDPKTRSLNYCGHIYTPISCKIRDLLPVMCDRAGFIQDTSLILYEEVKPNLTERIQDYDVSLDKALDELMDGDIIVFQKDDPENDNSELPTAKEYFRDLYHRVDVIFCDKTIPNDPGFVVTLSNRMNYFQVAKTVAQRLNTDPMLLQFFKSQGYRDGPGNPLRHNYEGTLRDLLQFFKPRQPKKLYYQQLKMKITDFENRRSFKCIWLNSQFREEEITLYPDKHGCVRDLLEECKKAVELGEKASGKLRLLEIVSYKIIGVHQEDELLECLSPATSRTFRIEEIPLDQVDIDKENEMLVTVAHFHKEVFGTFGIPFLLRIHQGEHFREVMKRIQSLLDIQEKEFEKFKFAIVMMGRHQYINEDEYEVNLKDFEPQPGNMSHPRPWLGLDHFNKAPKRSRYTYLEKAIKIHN
row,Compound,pIC50
1,"O=C([C@H]1CCc2cc(Cl)cc(-c3ccnc4cc(CO)sc34)c2O1)N1CCNCC1 [(R)-(6-chloro-8-(2-(hydroxymethyl)thieno[3,2-b]pyridin-7-yl)chroman-2-yl)(piperazin-1-yl)methanone]",> 6.00
2,"NCc1cc2nccc(-c3cc(Cl)cc4c3O[C@@H](C(=O)N3CCNCC3)C4)c2s1 [(R)-(7-(2-(aminomethyl)thieno[3,2-b]pyridin-7-yl)-5-chloro-2,3-dihydrobenzofuran-2-yl)(piperazin-1-yl)methanone]",> 6.00
3,"Cn1nc2c(c1[C@H]1Cc3cc(Cl)cc(-c4ccnc5cc(CO)sc45)c3O1)CNCC2 [(R)-(7-(5-chloro-2-(2-methyl-4,5,6,7-tetrahydro-2H-pyrazolo[4,3-c]pyridin-3-yl)-2,3-dihydrobenzofuran-7-yl)thieno[3,2-b]pyridin-2-yl)methanol]",> 6.00
4,"CCN1CCc2noc([C@H]3Cc4cc(Cl)cc(-c5ccnc6cc(CO)sc56)c4O3)c2C1 [(R)-(7-(5-chloro-2-(5-ethyl-4,5,6,7-tetrahydroisoxazolo[4,3-c]pyridin-3-yl)-2,3-dihydrobenzofuran-7-yl)thieno[3,2-b]pyridin-2-yl)methanol]",> 6.00
5,"CN1CCc2noc([C@H]3Cc4cc(Cl)cc(-c5ccnc6cc(CO)sc56)c4O3)c2C1 [(R)-(7-(5-chloro-2-(5-methyl-4,5,6,7-tetrahydroisoxazolo[4,3-c]pyridin-3-yl)-2,3-dihydrobenzofuran-7-yl)thieno[3,2-b]pyridin-2-yl)methanol]",> 6.00
6,"OCc1cc2nccc(-c3cc(Cl)cc4c3O[C@@H](c3onc5c3CNCC5)CC4)c2s1 [(R)-(7-(6-chloro-2-(4,5,6,7-tetrahydroisoxazolo[4,3-c]pyridin-3-yl)chroman-8-yl)thieno[3,2-b]pyridin-2-yl)methanol]",> 6.00
7,"CC(=O)NCCc1cc2nccc(-c3cc(Cl)cc4c3O[C@@H](C(=O)N3CCNCC3)C4)c2s1 [(R)-N-(2-(7-(5-chloro-2-(piperazine-1-carbonyl)-2,3-dihydrobenzofuran-7-yl)thieno[3,2-b]pyridin-2-yl)ethyl)acetamide]",> 6.00
8,"O=C([C@H]1Cc2cc(Cl)cc(-c3ccnc4cc(CCNS(=O)(=O)c5ccccc5)sc34)c2O1)N1CCNCC1 [(R)-N-(2-(7-(5-chloro-2-(piperazine-1-carbonyl)-2,3-dihydrobenzofuran-7-yl)thieno[3,2-b]pyridin-2-yl)ethyl)benzenesulfonamide]",> 6.00
9,"CN(C)S(=O)(=O)NCCc1cc2nccc(-c3cc(Cl)cc4c3O[C@@H](C(=O)N3CCNCC3)C4)c2s1 [(R)-N-(2-(7-(5-chloro-2-(piperazine-1-carbonyl)-2,3-dihydrobenzofuran-7-yl)thieno[3,2-b]pyridin-2-yl)ethyl)dimethylamimosulfonylurea]",> 6.00
10,"CS(=O)(=O)NCCc1cc2nccc(-c3cc(Cl)cc4c3O[C@@H](C(=O)N3CCNCC3)C4)c2s1 [(R)-N-(2-(7-(5-chloro-2-(piperazine-1-carbonyl)-2,3-dihydrobenzofuran-7-yl)thieno[3,2-b]pyridin-2-yl)ethyl)methanesulfonamide]",> 6.00
11,"CC(C)S(=O)(=O)NCCc1cc2nccc(-c3cc(Cl)cc4c3O[C@@H](C(=O)N3CCNCC3)C4)c2s1 [(R)-N-(2-(7-(5-chloro-2-(piperazine-1-carbonyl)-2,3-dihydrobenzofuran-7-yl)thieno[3,2-b]pyridin-2-yl)ethyl)propane-2-sulfonamide]",> 6.00
12,"CC(=O)NC(C)(C)c1cc2nccc(-c3cc(Cl)cc4c3O[C@@H](C(=O)N3CCNCC3)C4)c2s1 [(R)-N-(2-(7-(5-chloro-2-(piperazine-1-carbonyl)-2,3-dihydrobenzofuran-7-yl)thieno[3,2-b]pyridin-2-yl)propan-2-yl)acetamide]",5.00 to 6.00
13,"CC(=O)NCc1ccc2c(-c3cc(Cl)cc4c3O[C@@H](c3onc5c3CNCC5)C4)ccnc2c1 [(R)-N-((4-(5-chloro-2-(4,5,6,7-tetrahydroisoxazolo[4,3-c]pyridin-3-yl)-2,3-dihydrobenzofuran-7-yl)quinolin-7-yl)methyl)acetamide]",5.00 to 6.00
14,"CS(=O)(=O)NCc1ccc2c(-c3cc(Cl)cc4c3O[C@@H](c3onc5c3CNCC5)C4)ccnc2c1 [(R)-N-((4-(5-chloro-2-(4,5,6,7-tetrahydroisoxazolo[4,3-c]pyridin-3-yl)-2,3-dihydrobenzofuran-7-yl)quinolin-7-yl)methyl)methanesulfonamide]",5.00 to 6.00
15,"CC(=O)NCc1cc2ncnc(-c3cc(Cl)cc4c3O[C@@H](c3onc5c3CNCC5)C4)c2s1 [(R)-N-((4-(5-chloro-2-(4,5,6,7-tetrahydroisoxazolo[4,3-c]pyridin-3-yl)-2,3-dihydrobenzofuran-7-yl)thieno[3,2-d]pyrimidin-6-yl)methyl)acetamide]",> 6.00
16,"CC(=O)NCc1cc2nccc(-c3cc(Cl)cc4c3O[C@@H](c3c5c(nn3C)CCNC5)C4)c2s1 [(R)-N-((7-(5-chloro-2-(2-methyl-4,5,6,7-tetrahydro-2H-pyrazolo[4,3-c]pyridin-3-yl)-2,3-dihydrobenzofuran-7-yl)thieno[3,2-b]pyridin-2-yl)methyl)acetamide]",> 6.00
17,"FC(F)(F)CNCc1cc2nccc(-c3cc(Cl)cc4c3O[C@@H](c3onc5c3CNCC5)C4)c2s1 [(R)-N-((7-(5-chloro-2-(4,5,6,7-tetrahydroisoxazolo[4,3-c]pyridin-3-yl)-2,3-dihydrobenzofuran-7-yl)thieno[3,2-b]pyridin-2-yl)methyl)-2,2,2-trifluoroethan-1-amine]",> 6.00
18,"CC(=O)NCc1cc2nccc(-c3cc(Cl)cc4c3O[C@@H](c3onc5c3CNCC5)C4)c2s1 [(R)-N-((7-(5-chloro-2-(4,5,6,7-tetrahydroisoxazolo[4,3-c]pyridin-3-yl)-2,3-dihydrobenzofuran-7-yl)thieno[3,2-b]pyridin-2-yl)methyl)acetamide]",> 6.00
19,"CC(C)C(=O)NCc1cc2nccc(-c3cc(Cl)cc4c3O[C@@H](c3onc5c3CNCC5)C4)c2s1 [(R)-N-((7-(5-chloro-2-(4,5,6,7-tetrahydroisoxazolo[4,3-c]pyridin-3-yl)-2,3-dihydrobenzofuran-7-yl)thieno[3,2-b]pyridin-2-yl)methyl)isobutyramide]",> 6.00
20,"CS(=O)(=O)NCc1cc2nccc(-c3cc(Cl)cc4c3O[C@@H](c3onc5c3CNCC5)C4)c2s1 [(R)-N-((7-(5-chloro-2-(4,5,6,7-tetrahydroisoxazolo[4,3-c]pyridin-3-yl)-2,3-dihydrobenzofuran-7-yl)thieno[3,2-b]pyridin-2-yl)methyl)methanesulfonamide]",> 6.00
21,"CCC(=O)NCc1cc2nccc(-c3cc(Cl)cc4c3O[C@@H](c3onc5c3CNCC5)C4)c2s1 [(R)-N-((7-(5-chloro-2-(4,5,6,7-tetrahydroisoxazolo[4,3-c]pyridin-3-yl)-2,3-dihydrobenzofuran-7-yl)thieno[3,2-b]pyridin-2-yl)methyl)propionamide]",> 6.00
22,"CC(=O)N(C)Cc1cc2nccc(-c3cc(Cl)cc4c3O[C@@H](C(=O)N3CCNCC3)C4)c2s1 [(R)-N-((7-(5-chloro-2-(piperazine-1-carbonyl)-2,3-dihydrobenzofuran-7-yl)thieno[3,2-b]pyridin-2-yl)methyl)-N-methylacetamide]",> 6.00
23,"CC(=O)NCc1cc2nccc(-c3cc(Cl)cc4c3O[C@@H](C(=O)N3CCNCC3)C4)c2s1 [(R)-N-((7-(5-chloro-2-(piperazine-1-carbonyl)-2,3-dihydrobenzofuran-7-yl)thieno[3,2-b]pyridin-2-yl)methyl)acetamide]",> 6.00
